Article PMC6423129, “Activity and structural analysis of GRL-117C: a novel small molecule CCR5 inhibitor active against R5-tropic HIV-1s” (Scientific Reports, 2019)
Where two headings read alike, the source gives them in different places.

Legend:
pCH058.c/2960 = assay: MAGI assay, T/F HIV-1 clone pCH058.c/2960; format: cell-based; details: Human immunodeficiency virus 1, MAGI
Excerpt: (§1) We also examined the activity of GRL-compounds against Transmitter/founder (T/F) HIV-1 viruses. T/F viruses are involved in the initial infection. It is considered that T/F viruses virtually always use CCR5 rather than CXCR4 and infect T cells but not macrophages because […] of CD4 is needed to mediate virus entry for the initial transmission[20]–[24]. […] We obtained four HIV-1 T/F infectious clones. We determined the antiviral activity of GRL-117C, GRL-10007C and GRL-10018C on these HIV-1 clones using MAGI assay.
(§2) MAGI-CCR5 cells[18] were maintained in DMEM supplemented with 10% fetal calf serum (FCS: Gemini Bio-Products, West Sacramento, CA), 200 μg/ml G418, 100 μg/ml hygromycin B, and 100 μg/ml zeomycin. The Chinese hamster ovary (CHO) cells expressing CCR5[19] were maintained in Ham’s F-12 medium (GIBCO-BRL, Rockville, MD) supplemented with 10% FCS, 50 U/ml penicillin, and 50 μg/ml streptomycin in the presence of 5 μg/ml blasticidin S hydrochloride. TZM-bl cells were obtained from the NIH AIDS Reagent Program, and were cultured in DMEM with 10% FCS. Peripheral blood mononuclear cells (PBMCs) were isolated from buffy coats of HIV-1 seronegative individuals, and were activated with 10 μg/ml phytohemagglutinin (PHA) prior to use[16]. A laboratory wild-type R5-HIV-1 strain (HIV-1Ba-L)[37] was employed for drug susceptibility assays. AD101 (experimental CCR5 inhibitor) and VVC-resistant HIV clones[7],[8] were provided by Dr. John P. Moore of Cornell University for this study. The clones were propagated with activated PBMCs, and were used for the assays. […] The following reagents (plasmids) for T/F HIV-1 viruses[22],[24] were obtained through the NIH AIDS Reagent Program, Division of AIDS, NIAID, NIH: pCH040.c/2625 (cat# 11740), pCH106.c/2633 (cat# 11743), pTHRO.c/2626 (cat# 11745), and pCH058.c/2960 (cat# 11856), from Dr. John Kappes and Dr. Christina Ochsenbauer.
(§3) Antiviral assays using PHA-PBMCs (p24 assay) were conducted as previously reported[16],[38]. In brief, PHA-PBMCs (1 × 10^6/ml) were exposed to 50 TCID50 of HIV-1Ba-L or drug-resistant HIV-1 infectious clones in the presence or absence of various concentrations of drugs; 10-fold serial dilutions were performed in 96-well microculture plates. The amount of p24 antigens produced by the cells was determined on day 7 in the culture via a commercially available ELISA kit (PerkinElmer). The p24 production level in drug-free control cell cultures was used as the reference. […] Antiviral assays using MAGI-CCR5 cells (MAGI assay) were conducted as previously reported[16],[39]. Single-round virus infection assays using TZM-bl cells infected with R5-HIV-1s (HIV-1YU2, HIV-1KP-5pc, and HIV-1KP-5mvcR)[10] were also conducted as previously described.

[1] = test system: CC101.19 cl.7 (AD101 resistant); assay: microbe, parasite or virus in culture; format: cell-based, HIV-1; details: for fold increases of IC50s compared to wild type (CC1/85 cl.7): CC101.19 cl.7 (AD101 resistant) vs CC1/85 cl.7
Procedure: (§4) MAGI-CCR5 cells[18] were maintained in DMEM supplemented with 10% fetal calf serum (FCS: Gemini Bio-Products, West Sacramento, CA), 200 μg/ml G418, 100 μg/ml hygromycin B, and 100 μg/ml zeomycin. The Chinese hamster ovary (CHO) cells expressing CCR5[19] were maintained in Ham’s F-12 medium (GIBCO-BRL, Rockville, MD) supplemented with 10% FCS, 50 U/ml penicillin, and 50 μg/ml streptomycin in the presence of 5 μg/ml blasticidin S hydrochloride. TZM-bl cells were obtained from the NIH AIDS Reagent Program, and were cultured in DMEM with 10% FCS. Peripheral blood mononuclear cells (PBMCs) were isolated from buffy coats of HIV-1 seronegative individuals, and were activated with 10 μg/ml phytohemagglutinin (PHA) prior to use[16]. A laboratory wild-type R5-HIV-1 strain (HIV-1Ba-L)[37] was employed for drug susceptibility assays. AD101 (experimental CCR5 inhibitor) and VVC-resistant HIV clones[7],[8] were provided by Dr. John P. Moore of Cornell University for this study. The clones were propagated with activated PBMCs, and were used for the assays. A clinical HIV-1 strain, HIV-1KP-5pc, and an MVC-resistant isolate, HIV-1KP-5mvcR, were prepared and used for antiviral assays, as previously described[10],[38]. The following reagents (plasmids) for T/F HIV-1 viruses[22],[24] were obtained through the NIH AIDS Reagent Program, Division of AIDS, NIAID, NIH: pCH040.c/2625 (cat# 11740), pCH106.c/2633 (cat# 11743), pTHRO.c/2626 (cat# 11745), and pCH058.c/2960 (cat# 11856), from Dr. John Kappes and Dr. Christina Ochsenbauer.
as §3

[2] = test system: D1/85.16 cl.23 (VVC resistant); assay: microbe, parasite or virus in culture; format: cell-based, HIV-1; details: for fold increases of IC50s compared to wild type (CC1/85 cl.7): D1/85.16 cl.23 (VVC resistant) vs CC1/85 cl.7
Procedure: as §4, §3

pTHRO.c/2626 = assay: MAGI assay, T/F HIV-1 clone pTHRO.c/2626; format: cell-based; details: Human immunodeficiency virus 1, MAGI
Excerpt: as §1, §2, §3

CCR5 [3] = target: T1, CCR5 (Homo sapiens, UniProt P51681); assay: Inhibition of 125I-MIP-1β binding to CCR5 (CCR5+ CHO cells)
T1 construct: expressed in transfected cells; host or cells: Chinese hamster ovary (CHO) cells expressing CCR5
T1 sequence (P51681 whole entry): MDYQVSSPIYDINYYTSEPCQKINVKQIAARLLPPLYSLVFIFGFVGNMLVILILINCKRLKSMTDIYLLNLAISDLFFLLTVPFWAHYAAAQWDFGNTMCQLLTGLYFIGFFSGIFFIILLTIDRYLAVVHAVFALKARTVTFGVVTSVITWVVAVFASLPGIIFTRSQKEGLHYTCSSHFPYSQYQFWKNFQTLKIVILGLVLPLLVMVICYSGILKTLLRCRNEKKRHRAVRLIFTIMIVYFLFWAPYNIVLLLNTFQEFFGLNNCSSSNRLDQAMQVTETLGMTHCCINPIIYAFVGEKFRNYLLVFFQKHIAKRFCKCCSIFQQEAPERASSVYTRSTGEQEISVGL
Procedure: (§5) In order to determine whether GRL derivatives block the binding of CC-chemokines to CCR5, we conducted a CC-chemokine binding inhibition assay using ^125I-labeled CC-chemokines (^125I-RANTES, ^125I-MIP-1α, and ^125I-MIP-1β) and CCR5 expressing cells.
(§6) CCR5^+ CHO cells were incubated with (A) ^125I-MIP-1α, (B) ^125I-MIP-1β, and (C) ^125I-RANTES (200 ng/ml) in the presence or absence of varying concentrations of CCR5 inhibitors. Data are shown as means ± s.d. of three independent experiments.
(§7) The inhibition of the binding of ^125I-labeled CC-chemokines ([^125I] RANTES, [^125I] MIP-1α, or [^125I] MIP-1β) to CCR5 by various CCR5 inhibitors was measured as previously described. Calcium flux inhibition assays were also performed with CCR5 inhibitors, and were carried out with the Fluo-4 Direct^TM calcium reagent (Invitrogen); assays were conducted as previously described with minor modifications. In brief, CHO-CCR5 cells (5 × 10^5 cells) were exposed to Fluo-4 Direct^TM calcium reagent for 60 min at 37 °C in RPMI containing 5% FCS. Cells were then incubated with the test compound for 30 min at varying concentrations. Subsequently, cells were exposed to either MIP-1α, MIP-1β, or RANTES at 200 ng/ml. Relative increases in cytosolic Ca^2+ levels after chemokine exposure were determined with flow cytometry (FACSCalibur, BD Biosciences), and IC50 values of cytosolic Ca^2+ mobilization (Ca^2+ flux) were compared with the Ca^2+ flux level in drug-free control samples.

pCH040.c/2625 = assay: MAGI assay, T/F HIV-1 clone pCH040.c/2625; format: cell-based; details: Human immunodeficiency virus 1, MAGI
Excerpt: as §1, §2, §3

pCH0.6.c/2633 = assay: MAGI assay, T/F HIV-1 clone pCH0.6.c/2633; format: cell-based; details: Human immunodeficiency virus 1, MAGI
Excerpt: as §1, §2, §3

R5-HIV-1BaL = assay: p24 assay using PBMCs and R5-HIV-1BaL; format: cell-based; details: Ba-L (PBMCs), day 7
Procedure: as §4, §3

R5-HIV-1Ba-L = assay: MAGI assay using MAGI/CCR5 cells and R5-HIV-1Ba-L; format: cell-based; details: Ba-L (MAGI)
Procedure: as §4, §3

CC1/85 cl.7 = assay: Anti-HIV-1 assay, drug-naive clinical strain CC1/85 cl.7; format: cell-based
Procedure: as §4, §3

HIV-1KP-5mvcR = assay: TZM-bl single-round infection assay, MVC-resistant HIV-1KP-5mvcR; format: cell-based; details: in words; data not shown
Procedure: as §4, §3

CCR5 [4] = target: T1, CCR5; assay: Inhibition of 125I-MIP-1α binding to CCR5 (CCR5+ CHO cells)
Procedure: as §5, §6, §7

CCR5 [5] = target: T1, CCR5; assay: Inhibition of 125I-RANTES binding to CCR5 (CCR5+ CHO cells)
Procedure: as §5, §6, §7

CC1/85 cl.6 = assay: Anti-HIV-1 assay, drug-naive clinical strain CC1/85 cl.6; format: cell-based
Procedure: as §4, §3

[6] = Human immunodeficiency virus 1, CC101.19 cl.7 (AD101 resistant)
[7] = Human immunodeficiency virus 1, D1/85.16 cl.23 (VVC resistant)
[8] = Human immunodeficiency virus 1, BAL, PBMC, 168 h
[9] = Human immunodeficiency virus 1, BAL

Row | SMILES | IC50 (pCH058.c/2960) | fold increases of IC50s compared to wild type (CC1/85 cl.7) [1] | IC90 ([1]; Human immunodeficiency virus 1) | IC50 [1, 6] | fold increases of IC50s compared to wild type (CC1/85 cl.7) [2] | IC90 ([2]; Human immunodeficiency virus 1) | IC50 [2, 7] | IC50 (pTHRO.c/2626) | EC50 (CCR5 [3]) | IC50 (pCH040.c/2625) | IC50 (pCH0.6.c/2633) | IC50 (R5-HIV-1BaL; [8]) | IC90 (R5-HIV-1BaL; [8]) | IC50 (R5-HIV-1Ba-L; [9]) | IC90 (R5-HIV-1Ba-L; [9]) | IC50 (CC1/85 cl.7; Human immunodeficiency virus 1) | IC90 (CC1/85 cl.7; Human immunodeficiency virus 1) | activity against MVC-resistant HIV-1 (HIV-1KP-5mvcR) (HIV-1KP-5mvcR) | EC50 (CCR5 [4]) | EC50 (CCR5 [5]) | other results
1 | C=CCN(C(=O)OCC1COC2OCCC12)C1CC2CCC(C1)N2CCC(C)(CN(C)S(=O)(=O)c1ccccc1)c1ccccc1 (centres unmarked) [GRL-10018C] | 8 ± 2.3 nM | (×11) fold | 553 nM | 52.5 nM | (×12.5) fold | 642 nM | 61.3 nM | 3.9 ± 1.1 nM | 0.4 nM | 7.2 ± 1.4 nM | 8.8 ± 4.2 nM | 18.7 nM | 155 nM | 2.9 nM | 27.5 nM | 4.9 nM | 34.9 nM | failed to demonstrate activity | 0.3 nM | 17 nM | –
2 | Cc1ccc(-c2ccc3c(c2)C=C(C(=O)Nc2ccc(C[N+](C)(C)C4CCOCC4)cc2)CCC3)cc1.[Cl-] [TAK-779] | – | (×14) fold | – | – | (×5.9) fold | – | – | – | – | – | – | – | – | – | – | – | – | – | – | – | IC50 ([1]; CC101.19 cl.7 (AD101 resistant), read-out: IC50): 400 nM; IC90 ([1]; CC101.19 cl.7 (AD101 resistant), read-out: IC90): > 1000 nM; IC50 ([2]; D1/85.16 cl.23 (VVC resistant), read-out: IC50): 166 nM; IC90 ([2]; D1/85.16 cl.23 (VVC resistant), read-out: IC90): 747 nM; IC50 (R5-HIV-1BaL): 31.6 nM; IC90 (R5-HIV-1BaL): 187 nM; IC50 (CC1/85 cl.6; CC1/85 cl.6, drug naive R5-HIV-1 clinical strain, read-out: IC50): 22.7 nM; IC50 (R5-HIV-1Ba-L): 15.7 nM; IC90 (R5-HIV-1Ba-L): 88.1 nM; IC50 (CC1/85 cl.7; CC1/85 cl.7, drug naive R5-HIV-1 clinical strain, read-out: IC50): 28.3 nM; IC90 (CC1/85 cl.7; CC1/85 cl.7, drug naive R5-HIV-1 clinical strain, read-out: IC90): 101 nM
3 | Cc1cccc(C)c1C(=O)N1C2CCC1CC(N1CCN(C(C)c3ccc(C(F)(F)F)cc3)C(C)C1)C2 (centres unmarked) [GRL-10007C] | 6.1 ± 3.2 nM | – | 472 nM | 41.1 nM | – | 536 nM | 56.9 nM | 3.2 ± 0.4 nM | 2.5 nM | 3.1 ± 0.3 nM | 5.3 ± 3.4 nM | 16.9 nM | 126 nM | 1.4 nM | 9.5 nM | 15.8 nM | 80.3 nM | failed to demonstrate activity | 1.1 nM | 628 nM | IC50 (CC1/85 cl.6; Human immunodeficiency virus 1): 12.5 nM; binding of 125I-RANTES remaining (CCR5 [5]; in the presence of 1 μM compound): more than 40%
